Laboratory results published in patent US11840528B2 (Hoffmann-La Roche Inc., priority 2018, dated 2023).

Assays:
[1] = biological target: T1, h-GABA-A α5β3γ2 (Homo sapiens, UniProt P18507+P31644); experiment: [3H]flumazenil competition binding assay, membranes of HEK293 cells expressing GABAA receptors; details: displacement of [3H]-Flumazenil 0.5 nM, HEK293 cells expressing human receptors, mean of two determinations; Table 1
In short: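 Receptor source: human α5β3γ2 transiently transfected into HEK293 cells, membranes in pH 7.5 Krebs-tris. Filtration through GF/C, then scintillation counting.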

[2] = biological target: T1, h-GABA-A α5β3γ2; experiment: Two-electrode voltage clamp electrophysiology in Xenopus laevis oocytes expressing GABAA receptors, modulation of GABA EC20 current; format: cell-based; parameters: host or cells: Xenopus laevis oocytes micro-injected with RNA transcripts of the subunits; details: Table 1; for Efficacy (GABA) %: % modulation of GABA EC20 = 100*(Fold increase-1); for Fold increase h-GABA-A α5β3γ2 oocyte: test compound at approx. 30 fold its Ki, GABA at EC20
In short: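 Modulation is reported as % of the GABA EC20 current, calculated as 100*(Fold increase−1) from the peak ratio between a second GABA response carrying compound (applied at roughly 30-fold Ki) and a preceding control response. Oocytes expressing human α5β3γ2 were clamped at −80 mV at room temperature, 3–5 days after injection.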

Row | Structure (SMILES) | Ki [1] [nM] | Efficacy (GABA) % [2] [%] | Fold increase h-GABA-A α5β3γ2 oocyte [2]
1 | Cc1ccc(-c2noc(C)c2Cn2ncc(-c3cnn(CC4(C)COC4)c3)cc2=O)cn1 [Example 176, 2-((5-methyl-3-(6-methylpyridin-3-yl)isoxazol-4-yl)methyl)-5-(1-((3-methyloxetan-3-yl)methyl)-1H-pyrazol-4-yl)pyridazin-3(2H)-one] | 29.7 | 103 | 2.03
2 | Cc1ccc(-c2noc(C)c2Cn2ncc(N3CC(Oc4ccc(Cl)cn4)C3)cc2=O)cn1 [Example 130, 5-[3-[(5-chloro-2-pyridyl)oxy]azetidin-1-yl]-2-[[5-methyl-3-(6-methyl-3-pyridyl)isoxazol-4-yl]methyl]pyridazin-3-one] | 25.1 | 187 | 2.87
3 | Cc1ccc(-c2noc(C)c2Cn2ncc(N3CC(OCC(F)F)C3)cc2=O)cn1 [Example 206, 5-[3-(2,2-difluoroethoxy)azetidin-1-yl]-2-[[5-methyl-3-(6-methyl-3-pyridyl)isoxazol-4-yl]methyl]pyridazin-3-one] | 13.7 | 144 | 2.44
4 | Cc1ccc(-c2noc(C)c2Cn2ncc(N3CCC(C)(O)CC3)cc2=O)cn1 [Example 119, 5-(4-hydroxy-4-methylpiperidin-1-yl)-2-((5-methyl-3-(6-methylpyridin-3-yl)isoxazol-4-yl)methyl)pyridazin-3(2H)-one] | 2.6 | 138 | 2.38
5 | Cc1ccc(-c2noc(C)c2Cn2ncc(-c3ccc(OC(F)F)nc3)cc2=O)cn1 [Example 149, 5-(6-(difluoromethoxy)pyridin-3-yl)-2-((5-methyl-3-(6-methylpyridin-3-yl)isoxazol-4-yl)methyl)pyridazin-3(2H)-one] | 20.2 | 89 | 1.89
6 | Cc1ccc(-c2noc(C)c2Cn2ncc(N3CC[C@@H](O)C3)cc2=O)cn1 [Example 3, 5-[(3R)-3-hydroxypyrrolidin-1-yl]-2-[[5-methyl-3-(6-methyl-3-pyridyl)isoxazol-4-yl]methyl]pyridazin-3-one] | 10.6 | 110 | 2.1
7 | COc1ncccc1N1CCN(c2cnn(Cc3c(-c4ccc(C)nc4)noc3C)c(=O)c2)CC1 [Example 101, 5-[4-(2-methoxy-3-pyridyl)piperazin-1-yl]-2-[[5-methyl-3-(6-methyl-3-pyridyl)isoxazol-4-yl]methyl]pyridazin-3-one] | 3.2 | 146 | 2.46
8 | Cc1ccc(-c2noc(C)c2Cn2ncc(N3CCN[C@@H](C)C3)cc2=O)cn1 [Example 51, 2-[[5-methyl-3-(6-methyl-3-pyridyl)isoxazol-4-yl]methyl]-5-[(3S)-3-methylpiperazin-1-yl]pyridazin-3-one] | 3.3 | 182 | 2.82
9 | Cc1ccc(-c2noc(C)c2Cn2ncc(N3CC4(CCCO4)C3)cc2=O)nn1 [Example 171, 2-[[5-methyl-3-(6-methylpyridazin-3-yl)isoxazol-4-yl]methyl]-5-(5-oxa-2-azaspiro[3.4]octan-2-yl)pyridazin-3-one] | 4.2 | 80 | 1.8
10 | Cc1ccc(-c2noc(C)c2Cn2ncc(N3CC4(CCCCO4)C3)cc2=O)cn1 [Example 216, 2-((5-methyl-3-(6-methylpyridin-3-yl)isoxazol-4-yl)methyl)-5-(5-oxa-2-azaspiro[3.5]nonan-2-yl)pyridazin-3(2H)-one] | 15.8 | 103 | 2.03
11 | Cc1ccc(-c2noc(C)c2Cn2ncc(N3CCN[C@H](C)C3)cc2=O)cn1 [Example 50, 2-[[5-methyl-3-(6-methyl-3-pyridyl)isoxazol-4-yl]methyl]-5-[(3R)-3-methylpiperazin-1-yl]pyridazin-3-one] | 2.8 | 187 | 2.87
12 | Cc1ccc(-c2noc(C)c2Cn2ncc(N3CC4(CCOCC4)C3)cc2=O)cn1 [Example 199, 2-((5-methyl-3-(6-methylpyridin-3-yl)isoxazol-4-yl)methyl)-5-(7-oxa-2-azaspiro[3.5]nonan-2-yl)pyridazin-3(2H)-one] | 19.4 | 117 | 2.17
13 | Cc1ccc(-c2noc(C)c2Cn2ncc(-c3ccnc(N4CCNCC4)c3)cc2=O)cn1 [Example 163, 2-((5-methyl-3-(6-methylpyridin-3-yl)isoxazol-4-yl)methyl)-5-(2-(piperazin-1-yl)pyridin-4-yl)pyridazin-3(2H)-one] | 11.4 | 165 | 2.65
14 | Cc1ccc(-c2noc(C(F)F)c2Cn2ncc(N3C[C@@H](C)O[C@@H](C)C3)cc2=O)cn1 [Example 182, 2-((5-(Difluoromethyl)-3-(6-methylpyridin-3-yl)isoxazol-4-yl)methyl)-5-((2S,6R)-2,6-dimethylmorpholino)pyridazin-3(2H)-one] | 18.9 | 209 | 3.09
15 | Cc1ccc(-c2noc(C)c2Cn2ncc(N3C4COCC3C4)cc2=O)cn1 [Example 33, 2-[[5-methyl-3-(6-methyl-3-pyridyl)isoxazol-4-yl]methyl]-5-(3-oxa-6-azabicyclo[3.1.1]heptan-6-yl)pyridazin-3-one] | 3.2 | 150 | 2.5

The remaining lines, values ahead:

Row | Ki [1] [nM] | Efficacy (GABA) % [2] [%] | Fold increase h-GABA-A α5β3γ2 oocyte [2] | Structure (SMILES)
16 | 14.6 | 99 | 1.99 | Cc1onc(-c2ccc(Cl)nc2)c1Cn1ncc(N2CC(OC(F)F)C2)cc1=O [Example 255, 2-((3-(6-chloropyridin-3-yl)-5-methylisoxazol-4-yl)methyl)-5-(3-(difluoromethoxy)azetidin-1-yl)pyridazin-3(2H)-one]
17 | 8 | 108 | 2.08 | Cc1onc(-c2ccc(Cl)nc2)c1Cn1ncc(N2CCN(c3cccnc3)CC2)cc1=O [Example 278, 2-((3-(6-chloropyridin-3-yl)-5-methylisoxazol-4-yl)methyl)-5-(4-(pyridin-3-yl)piperazin-1-yl)pyridazin-3(2H)-one]
18 | 4.2 | 86 | 1.86 | COC1CN(c2cnn(Cc3c(-c4ccc(Cl)nn4)noc3C)c(=O)c2)C1 [Example 252, 2-((3-(6-chloropyridazin-3-yl)-5-methylisoxazol-4-yl)methyl)-5-(3-methoxyazetidin-1-yl)pyridazin-3(2H)-one]
19 | 3.7 | 123 | 2.23 | Cc1onc(-c2ccc(C3CC3)nc2)c1Cn1ncc(N2CC3(C2)CC(F)(F)CO3)cc1=O [Example 260, 2-((3-(6-cyclopropylpyridin-3-yl)-5-methylisoxazol-4-yl)methyl)-5-(7,7-difluoro-5-oxa-2-azaspiro[3.4]octan-2-yl)pyridazin-3(2H)-one]
20 | 3.2 | 63 | 1.63 | Cc1ccc(-c2noc(C)c2Cn2ncc(N3CC4(CCC(F)CO4)C3)cc2=O)nn1 (single isomer, unassigned) [Example 288]
21 | 1 | 91 | 1.91 | Cc1ccc(-c2noc(C)c2Cn2ncc(N3CC4(CCC(F)CO4)C3)cc2=O)nn1 (single isomer, unassigned) [Example 319]
22 | 10 | 81 | 1.81 | COC1CN(c2cnn(Cc3c(-c4ncc(C(F)(F)F)cn4)noc3C)c(=O)c2)C1 [Example 229, 5-(3-methoxyazetidin-1-yl)-2-((5-methyl-3-(5-(trifluoromethyl)pyrimidin-2-yl)isoxazol-4-yl)methyl)pyridazin-3(2H)-one]
23 | 2.4 | 88 | 1.88 | Cc1ccc(-c2noc(C)c2Cn2ncc(N3CC4(CC(C(F)(F)F)CCO4)C3)cc2=O)nn1 (single isomer, unassigned) [Example 311]
24 | 3.4 | 130 | 2.3 | Cc1ccc(-c2noc(C)c2Cn2ncc(N3CC4(C[C@H](OC(F)F)CO4)C3)cc2=O)nn1 [Example 246, 5-[(7S)-7-(difluoromethoxy)-5-oxa-2-azaspiro[3.4]octan-2-yl]-2-[[5-methyl-3-(6-methylpyridazin-3-yl)isoxazol-4-yl]methyl]pyridazin-3-one]
25 | 14.2 | 105 | 2.05 | Cc1ccc(-c2noc(C)c2Cn2ncc(N3CC4(CCC(C)(C)O4)C3)cc2=O)nn1 [Example 310, 5-(6,6-dimethyl-5-oxa-2-azaspiro[3.4]octan-2-yl)-2-[[5-methyl-3-(6-methylpyridazin-3-yl)isoxazol-4-yl]methyl]pyridazin-3-one]
26 | 2.8 | 77 | 1.77 | Cc1ccc(-c2noc(C)c2Cn2ncc(N3CC4(CCCCO4)C3)cc2=O)nn1 [Example 235, 2-((5-methyl-3-(6-methylpyridazin-3-yl)isoxazol-4-yl)methyl)-5-(5-oxa-2-azaspiro[3.5]nonan-2-yl)pyridazin-3(2H)-one]
